Laboratory results published in patent US20260103479A1, “PRODRUGS OF OPICAPONE” (BIAL- PORTELA & CA, S.A., priority 2022, published 2026).
Values after ≈ are worked out from the molar mass of the structure shown. Where two headings read alike, the source gives them in different places.

What was measured:
[1] = Subcutaneous pharmacokinetics in rats; format: in vivo, male Wistar rats; settings: s.c. 3 mg/kg; for Cmax / Tmax / AUC(0-t): male, Wistar, sc, rat plasma, analyte prodrug; for AUC(0-t): read-out: AUClast of prodrug; for irritation at the injection site: DMSO:20% HPBCD (1:9), rat
Experimental: The pharmacokinetic properties of compounds 1 and 4 were assessed by subcutaneous injection to 4 male Wistar rats (3 mg/kg; DMSO:20% HPBCD (1:9)).
During the studies, blood was collected at different time points, from tail vein, spun at 1500×g in a refrigerated centrifuge (4° C.) for 15 min, and the plasma obtained was stored at −80° C. until further analysis. The plasma samples collected were analysed for compound 1, compound 4 and opicapone exposure. The bioanalysis involved the use of LC-MS/MS after plasma precipitation.

physchem = settings: water, thermodynamic from solid
erythrocyte S-COMT = target: T1, erythrocyte S-COMT (Rattus norvegicus, UniProt P22734); assay: Subcutaneous pharmacodynamics: erythrocyte S-COMT activity (adrenaline to metanephrine); format: in vivo, male Wistar rats; settings: sc, s.c. 3 mg/kg
T1 construct: from tissue; host or cells: erythrocytes of male Wistar rats (haemolysate supernatant, 20 000 x g)
T1 sequence (P22734 1-221 isoform P22734-2): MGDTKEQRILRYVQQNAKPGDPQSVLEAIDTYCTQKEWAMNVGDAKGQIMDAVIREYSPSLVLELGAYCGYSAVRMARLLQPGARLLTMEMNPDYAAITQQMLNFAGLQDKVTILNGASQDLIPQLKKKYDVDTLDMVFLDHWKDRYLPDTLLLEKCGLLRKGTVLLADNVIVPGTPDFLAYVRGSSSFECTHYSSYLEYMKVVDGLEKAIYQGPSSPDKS
Experimental: The pharmacodynamic properties of compounds 1 and 4 compared to oral administered micronized crystalline opicapone were assessed by subcutaneous injection to 4 male Wistar rats (3 mg/kg; DMSO:20% HPBCD (1:9)) then measurement of erythrocyte S-COMT activity over time.
During the studies, blood was collected at different time points, from tail vein, spun at 1500×g in a refrigerated centrifuge (4° C.) for 15 min, and the plasma and erythrocytes obtained were stored at −80° C. until further analysis. The plasma samples collected were analysed for compound 1, compound 4 and opicapone exposure, as previously described
Erythrocyte S-COMT activity was evaluated by the ability to methylate adrenaline to metanephrine. Aliquots of erythrocytes were haemolyzed by addition of 4 volumes of ice-cold ultrapure water and homogenization in a bead mill homogenizer, using glass beads, followed by 10 minutes incubation on wet ice. After centrifugation (20 000×g, 20 minutes, 4° C.), the supernatant containing S-COMT was quantified for total protein using Bradford assay. Supernatants were diluted with water to 4 mg total protein per ml. 100 μL of these diluted supernatants were then pre-incubated in a 96-well plate for 20 min with 80 μL of phosphate buffer (10 mM, pH 7.8); thereafter, the reaction mixture was incubated for 10 min with adrenaline (10 mM; 20 μL) in the presence of a saturating concentration of S-adenosyl-L-methionine, the methyl donor (500 μM). The incubation medium also contained pargyline (100 μM), MgCl2, (100 μM) and EGTA (1 mM). The pre-incubation and incubation were carried out at 37° C., under conditions of light protection with continuous shaking and without oxygenation. At the end of the incubation period the plate was transferred to ice and the reaction was stopped by the addition of 15 μL of glacial acetic acid. 60 μL of each sample were then transferred to a new 96-well containing 400 μL of 0.1% formic acid, followed by plate centrifugation (2000×g, 5 minutes 4° C.). The supernatants were used for the quantification of metanephrine by LC-MS/MS.

L-DOPA metabolism = assay: Subcutaneous pharmacodynamics: impact on L-DOPA and 3-OMD plasma levels; format: in vivo, male Wistar rats; settings: s.c. 3 mg/kg with 12 mg/kg L-DOPA plus 3 mg/kg benserazide vs without compound; rat
Experimental: As proof-of-concept, the effects of compound 4 on L-DOPA metabolism was evaluated in 4 male Wistar rats. Animals were subcutaneously injected with a single formulation (in DMSO:PEG 400:30% SBEBCD (1:2:2)) containing 12 mg/kg of L-DOPA plus 3 mg/kg of benserazide with or without 3 mg/kg of compound 4. Plasma samples were collected as described above and analyzed for levels of L-DOPA and its metabolite 3-O-methyldopa (3-OMD).

[2] = Aqueous solubility in distilled (pure) water at room temperature; settings: thermodynamic from solid
[3] = Long-term stability studies in the solid state; format: physicochemical
[4] = 2 h after dosing, read-out: maximal inhibition of COMT activity in erythrocytes
[5] = at least until 8 h post-dosing, read-out: inhibition of COMT maintained

Row | solubility [2] [µg/mL] | long-term stability in the solid state [3] | Compound | Cmax [1] [ng/mL] | Tmax [1] [min] | AUC(0-t) [1] [ng·h/mL] | irritation at the injection site [1] | solubility (physchem) [µg/mL] | inhibition at 3 mg/kg (erythrocyte S-COMT; [4]) [%] | inhibition at 3 mg/kg (erythrocyte S-COMT; [5]) [%] | increase in the AUClast of circulating L-DOPA (L-DOPA metabolism) [fold] | levels of L-DOPA metabolite 3-OMD (L-DOPA metabolism)
1 |  |  | Cc1c(Cl)c(C)[n+]([O-])c(Cl)c1-c1noc(-c2cc(OP(=O)(O)O)c(O)c([N+](=O)[O-])c2)n1 [Compound 1, 2,5-dichloro-3-(5-(4-hydroxy-3-nitro-5-(phosphonooxy)phenyl)-1,2,4-oxadiazol-3-yl)-4,6-dimethylpyridine 1-oxide] | 7770 | 60 | 15500 | low levels of irritation | 6000 (≈ 12.2 mM) | 96 | > 80 |  | 
2 | > 500 | particularly stable | Cc1c(Cl)c(C)[n+]([O-])c(Cl)c1-c1noc(-c2cc(OCOP(=O)(O)O)c(O)c([N+](=O)[O-])c2)n1 [Compound 4, 2,5-dichloro-3-(5-(4-hydroxy-3-nitro-5-((phosphonooxy)methoxy)phenyl)-1,2,4-oxadiazol-3-yl)-4,6-dimethylpyridine 1-oxide] | 3140 | 30 | 9660 | low levels of irritation |  | 94 | > 80 | 1.7 | decrease
